Laboratory results: patent US20080113347A1, “Method for the in Vitro Diagnosis and Prognosis of Demyelinating Diseases, and for the Development of Drugs Against Demyelinating Diseases” (priority 2003, published 2008)
“And” between values parts separate entries of the source, which are not always exact repeats. Equal values may be shown once.

System: dusp6 gene expression
Test: Real time quantitative RT-PCR of dusp6 expression in primary oligodendrocyte cultures
Type: cell-based, rat
Settings: for Experimental dusp6 crossing points (Cp), single replicas: replicas 1 and 2; for Dusp6 overexpression values (Fold Change) with regard to the untreated control, Ratio: standardized to GAPDH
Description: The method used consists of reverse transcription of mRNA to cDNA and its subsequent amplification into a LightCycler equipment (Roche), using SYBR Green for the detection of the amplified product. Real time quantification is carried out, and it allows calculating the relative expression of the sequence in different samples in the linear amplification phase of the reaction.
Samples: Primary oligodendrocyte culture samples treated with AMPA were analyzed. The samples came from cultures different from those analyzed with DNA microarrays. 4 cultures were carried out:
control: untreated cultured oligodendrocytes
ampa 2: oligodendrocytes treated for 2 minutes with 10 μM AMPA and collected after treatment
ampa 10: oligodendrocytes treated for 10 minutes with 10 μM AMPA collected after treatment
ampa 15: oligodendrocytes treated for 15 minutes with 10 μM AMPA and collected 60 minutes later.
Real time quantitative RT-PCR. The total RNA of each one of the cultures was obtained by homogenizing the cells in TRIzol® Reagent (Life Technologies) following the supplier's recommendations. The resulting total RNA was cleaned with the RNeasy kit (QIAGEN) (Chomczynski P. et al., Anal. Biochem., 1987, 162: 156; Chomczynski P., Biotechniques, 1993, 15: 532). The total RNA samples were conserved at −80° C. from the moment they were obtained until they were used. The RNA was spectrophotometrically quantified and 5 μg of total RNA were digested with DNase (2 U/μl) of Ambion at a concentration of 2 U per μg of RNA, for 30 minutes at 37° C.
1 μg of RNA treated with DNAse as a starting material was used for the synthesis of the first cDNA strand with the reverse transcriptase enzyme SuperScript™ II RNase (Life Technologies), using an oligo-dT oligonucleotide as a primer which contained the sequence of the promoter of the phage T7 RNA polymerase. Aliquots of cDNA diluted to the working concentration were used.
Synthesized cDNA was amplified using specific primers of the rat dusp6 gene (SEQ ID NO: 1 and SEQ ID NO: 2), and of the gene encoding the rat protein glyceraldehyde 3-phosphate dehydrogenase, Genebank accession number NM_017008 (SEQ ID NO:21 and SEQ ID NO:22). Real time PCR reactions were prepared using the LightCycler-FastStart DNA master SYBR Green I kit (Roche) following the manufacturer's instructions. The amplification program consisted of […] for 10 min (“hot start”) followed by 45 95° C. cycles (denaturation) for 10 seconds, 60° C. (annealing) for 5 seconds, 72° C. (amplification and fluorescence acquisition) for 10 seconds. The melting curve analysis program consisted of a one-pulse cycle of 95° C., 65° C. for 15 seconds, and a 95° C. pulse during the amplification and acquisition step.
First, specificity of the PCR products was determined by analyzing the melting curves. Subsequently, as a relative measurement of gene expression, the ratio between the abundance of dusp6 transcribed mRNAs and the abundance of GAPDH transcribed mRNAS was calculated, and the data of the ratio was standardized in each one of the treated samples on the basis of control sample values. To calculate efficiency of the PCR reactions (dusp6 and GAPDH), a standard curve was constructed for each gene sequence carried out with cDNA serial dilutions. The template cDNA concentrations for the reactions on the standard curve were arbitrarily given the values 2×, 0.5×, 0.2× and 0.02×. The crossing point values for each one of the reactions were used to construct the standard curve: y=m×+b, where m is the slope and b is the intersection point of the line on the axis of ordinates. Starting RNA concentration values in each sample were obtained from the data of the line using the following formula: […]
The change rate at each point was obtained by dividing the concentration values standardized in comparison to the concentration values in the control.

[1] = 10 μM AMPA 2 minutes, collected after treatment
[2] = 10 μM AMPA 10 minutes, collected after treatment
[3] = 10 μM AMPA 15 minutes, collected 60 minutes later

## Cc1onc(O)c1CC(N)C(=O)O (stereo not drawn) [AMPA, α-amino-3-hydroxy-5-methyl-4-isoxazolepropionic acid]
[1]
  Experimental dusp6 crossing points (Cp), Mean: 30.5
  Experimental dusp6 crossing points (Cp), single replicas: 30.46 and 30.54
  Dusp6 overexpression values (Fold Change) with regard to the untreated control, Ratio: 1.7 fold
[2]
  Experimental dusp6 crossing points (Cp), Mean: 32.23
  Experimental dusp6 crossing points (Cp), single replicas: 32.15 and 32.31
  Dusp6 overexpression values (Fold Change) with regard to the untreated control, Ratio: 0.9 fold
[3]
  Experimental dusp6 crossing points (Cp), Mean: 29.67
  Experimental dusp6 crossing points (Cp), single replicas: 29.73 and 29.61
  Dusp6 overexpression values (Fold Change) with regard to the untreated control, Ratio: 2.7 fold
